In a melting point compilation (Tetko et al.):

Row | Compound | melting point [°C]
1 | O=C1NCCN1c1ccccc1[N+](=O)[O-] | 153 to 155
2 | O=C(O)CNc1ncccn1 | 169 to 171
3 | O=C(O)c1ccc(CO)o1 | 164 to 166
4 | CC(NC(=O)OC(C)(C)C)C1CCNCC1 (stereo unspecified) | 103 to 105
5 | O=[N+]([O-])c1cc([N+](=O)[O-])c(Br)cc1F | 92 to 94
6 | O=C(O)c1cnn(-c2ccc([N+](=O)[O-])cc2)c1 | 258 to 260
7 | CS(=O)(=O)Nc1ccc(O)c(C(=O)O)c1 | 228 to 230
8 | CC(=CC(=O)O)c1ccccc1C | 81 to 83
9 | Cc1cccc2[nH]cc(CCC(=O)O)c12 | 145 to 147
10 | O=C(O)CNc1ncnc2ccccc12 | 219 to 221
11 | CC(=O)c1ccc(OCC(=O)N2CCCC2)cc1 | 122 to 124
12 | O=C(O)CC1CCCN1Cc1nc2ccccc2c(=O)[nH]1 (stereo unspecified) | 197 to 199
13 | O=C(O)c1cnnn1-c1ccccc1Cl | 174 to 176
14 | O=c1[nH]c(-c2cccc(Br)c2)no1 | 198 to 200
15 | Cc1nc(COc2ccc(C=O)cc2)no1 | 57 to 59
16 | COc1ccccc1CC(C)=CC(=O)O | 96 to 98
17 | CCOC(=O)c1nnn(-c2cccc([N+](=O)[O-])c2)c1N | 151 to 153
18 | CC1=NN(c2cccc(C(F)(F)F)c2)C(=O)C1 | 127 to 129
19 | CCOC(=O)C(NS(=O)(=O)CC)C(=O)OCC | 51 to 53
20 | CC(=O)NCCNC(=O)CCC(=O)O | 166 to 168
21 | NS(=O)(=O)CC1CCCN1 (stereo unspecified) | 72 to 74
22 | Cc1csc(NC(=O)CSCC(N)C(=O)O)n1 (stereo unspecified) | 169 to 171
23 | O=C(NC1CC1)C(Cl)c1ccccc1 (stereo unspecified) | 128 to 130
24 | O=C(O)CCCCOc1ccc2oc3ccccc3c2c1 | 114 to 116

Row | Compound | melting point [°C]
25 | Nc1[nH]nc(-c2ccsc2)c1-c1ccc2c(c1)OCO2 | 79 to 81
26 | Cc1cc(Br)c2c(c1)C(=O)CCO2 | 84 to 86
27 | NC(=S)C1(NC(=O)c2ccccc2)CCCC1 | 189 to 191
28 | CN1CCN(C(=O)c2cc(N)ccn2)CC1 | 133 to 135
29 | CC1Oc2ccccc2NC1=O (stereo unspecified) | 142 to 144
30 | Nc1nnc(-c2ccc(Cl)cc2Cl)[nH]1 | 228 to 230
31 | Cc1ccc(C(=O)CC#N)c(C)c1 | 78 to 80
32 | Cc1sc(N)nc1-c1ccc2c(c1)CCCO2 | 209 to 211
33 | CCNc1nc(NCC)n2c(S)nnc2n1 | 98 to 100
34 | Cc1cc(-c2nc3cc(F)ccc3s2)ccc1N | 191 to 193
35 | Cc1c(C(=O)O)cnn1-c1ccccn1 | 174 to 176
36 | O=C(O)c1cc(S(=O)(=O)N2CCCC2)ccc1Br | 216 to 218
37 | Nc1cc(S(=O)(=O)NC2CC2)ccc1Cl | 125 to 127
38 | Cc1c(S(=O)(=O)Cl)cnn1-c1ccc(Cl)cc1 | 119 to 121
39 | CC(C)(C#N)Cc1ccccc1 | 47 to 49
40 | COC(=O)c1ccc(OCC#N)cc1 | 95 to 97
41 | Cc1nn(CC(C)C)c(Cl)c1C(=O)O | 128 to 130
42 | CC(C)NC(=O)c1ccc(Cl)cc1N | 158 to 160
43 | CC(C)c1noc(-c2cc(Cl)ccc2N)n1 | 93 to 95
44 | O=C(O)CCCCCc1cccs1 | 43 to 45
45 | Cc1nc(Cl)cc(Cl)n1 | 44 to 46
46 | O=C(O)C1CS(=O)(=O)c2ccccc2O1 (stereo unspecified) | 239 to 241
47 | Nc1cc(C(F)(F)F)ccc1O | 115 to 117
48 | O=C1c2ccccc2C(=O)N1CC1CN(Cc2ccccc2)CCO1 (stereo unspecified) | 136 to 138

Row | Compound | melting point [°C]
49 | O=C(O)c1cc2cccc(Br)c2o1 | 256 to 258
50 | COc1ccc(/C=C/C(=O)O)cc1S(=O)(=O)Cl | 184 to 186
51 | S=C1Cc2ccccc2N1 | 146 to 148
52 | CCC(C)C(C)S(N)(=O)=O (stereo unspecified) | 44 to 46
53 | CC(C)(C)OC(=O)Nc1ccsc1Br | 69 to 71
54 | NC(=O)c1ccccc1Oc1ncccc1C(=O)O | 253 to 255
55 | Cc1cc(C)c(NC(=O)C(C)Cl)c(Cl)c1 (stereo unspecified) | 157 to 159
56 | O=C(O)c1ccc(SC2CCOC2=O)cc1 (stereo unspecified) | 169 to 171
57 | NC1CCC(=O)NC1=O (stereo unspecified) | 214 to 216
58 | Cc1ccc(-c2nc3ccc(F)cc3n2C(C)C)cc1N | 183 to 185
59 | CC1=NN(Cc2ccc(Cl)cc2Cl)C(=O)C1 | 128 to 130
60 | CCOC(=O)C(NC(=O)c1ccc(Cl)c(Cl)c1)C(C)O (stereo unspecified) | 68 to 70
61 | COc1ccc(CNC(=O)C2CCNCC2)cc1 | 118 to 120
62 | O=C(O)c1cc([N+](=O)[O-])ccc1I | 194 to 196
63 | CC(C)(C)OC(=O)NC1CCN(CC(=O)O)CC1 | 204 to 206
64 | COC(=O)c1ccccc1CS(=O)(=O)F | 89 to 91
65 | NC(=O)COCc1ccccc1 | 92 to 94
66 | OCc1cn(-c2ccc(Cl)c(Cl)c2)nn1 | 142 to 144
67 | NS(=O)(=O)c1cc(C(=O)O)ccc1Br | 275 to 277
68 | Cn1ncc2c(O)c(C(=O)O)cnc21 | 193 to 195
69 | O=C(O)CCCc1nc2ccccc2s1 | 148 to 150
70 | O=C(O)Cc1n[nH]c2ccccc12 | 167 to 169
71 | O=C1CCOc2c(Br)cccc21 | 62 to 64
72 | Cc1c(N)cc(C#N)cc1F | 135 to 137

The next lines start with the values.

Row | melting point [°C] | Compound
73 | 198 to 200 | Cc1ccc(-n2nc(C(=O)O)c3c2CCC3)c(C)c1
74 | 153 to 155 | O=C1NCC(=O)N2CCCCC12 (stereo unspecified)
75 | 221 to 223 | Nc1nc(-c2cccc(C(F)(F)F)c2)n[nH]1
76 | 102 to 105 | CCN(Cc1ccccc1)S(=O)(=O)c1cc(C(=O)O)ccc1OC
77 | 268 to 270 | Nc1nc(-c2ccc(O)cc2)n[nH]1
78 | 157 to 159 | CC(Sc1nncn1C)C(=O)O (stereo unspecified)
79 | 85 to 87 | CCCC(=O)Nc1ccc(CN)cc1
80 | 159 to 161 | O=c1[nH]ccnc1Cl
81 | 87 to 91 | COCCn1c(C)cc(C(=O)CCl)c1C
82 | 60 to 62 | Cc1nc(CCl)nc2ccccc12
83 | 99 to 103 | O=S(=O)(c1ccc(Cl)cc1)N1CCNCC1
84 | 252 to 254 | O=C1NC(=O)C2(CCc3cc(Cl)ccc32)N1 (stereo unspecified)
85 | 194 to 196 | O=C(O)C1CCCN1C(=O)c1cc(Cl)ccc1Cl (stereo unspecified)
86 | 212 to 214 | COC(=O)Cn1ncc2c(=O)[nH]cnc21
87 | 104 to 106 | Cc1cc(N2CCCC2=O)ccc1S(=O)(=O)Cl
88 | 159 to 161 | Fc1ccc(-c2ccc(Cl)nn2)cc1
89 | 235 to 237 | Cc1oc(-c2ccc(Cl)cc2)nc1C(=O)O
90 | 143 to 145 | N#Cc1ccc(-c2nnc(CCl)o2)cc1
91 | 209 to 211 | O=C(O)C(=Cc1ccco1)NC(=O)c1ccccc1
92 | 109 to 111 | CC(O)c1nc2cc(Cl)ccc2s1 (stereo unspecified)
93 | 184 to 186 | COc1ccccc1NC(=O)COc1ccc(C(=O)O)cc1OC
94 | 134 to 136 | Cc1nn(-c2ccccc2)c(C)c1NC(=O)C(C)Cl (stereo unspecified)
95 | 50 to 52 | CC(C)c1ccc(C=O)cc1[N+](=O)[O-]

Row | melting point [°C] | Compound
96 | 167 to 169 | O=[N+]([O-])c1cc2c(cc1Br)OCCO2
97 | 108 to 110 | NN1CCN(C(c2ccccc2)c2ccccc2)CC1
98 | 63 to 65 | NC(c1ccncc1)c1ccc(F)cc1 (stereo unspecified)
99 | 149 to 151 | Cc1nc(Cl)sc1C(=O)O
100 | 139 to 141 | O=C(O)c1ccc([N+](=O)[O-])cc1I
101 | 140 to 142 | COc1ccc(N)cc1NC(=O)c1ccc(Cl)cc1F
102 | 107 to 109 | O=C(O)c1cc(S(=O)(=O)Cl)ccc1F
103 | 99 to 101 | COC(=O)c1cccc(-c2cccc(C(=O)OC)c2)c1
104 | 123 to 125 | Nc1ccc(Cl)c(S(=O)(=O)Nc2ccc(Cl)cc2)c1
105 | 178 to 180 | O=C(O)CS(=O)c1ccc([N+](=O)[O-])cc1 (stereo unspecified)
106 | 120 to 122 | CC(=O)c1ccc(N2CCCC2)cc1O
107 | 74 to 76 | CCN(CC)C(=O)CCC(=O)O
108 | 261 to 263 | CC1=NN(c2ccc(C(=O)O)cc2)CC1
109 | 150 to 152 | CCCS(=O)(=O)Nc1ccccc1C(=O)O
110 | 96 to 98 | N#Cc1ccnc(-n2cccn2)c1
111 | 307 to 309 | O=C(O)c1ccc2[nH]c(=O)oc2c1
112 | 148 to 150 | Cc1ccc(NC(N)=S)cc1F
113 | 125 to 127 | O=C(O)COc1cccc2cccnc12
114 | 218 to 220 | Nc1nc2cc3c(cc2s1)OCCCO3
115 | 169 to 171 | Nc1ccc(Cl)cc1C(=O)Nc1ccncc1
116 | 70 to 72 | COc1ccc2cc(C(C)C#N)ccc2c1 (stereo unspecified)
117 | 77 to 79 | CNS(=O)(=O)c1ccc(Br)c(C)c1
118 | 163 to 165 | COC(=O)c1sc(N)c(C(=O)OC)c1CBr

Row | melting point [°C] | Compound
119 | 176 to 178 | NC(=S)N1CCN(c2ccc(Cl)cc2)CC1
120 | 166 to 168 | N#Cc1ccc(N2CCN(c3ccc(F)cc3)CC2)nc1
121 | 248 to 250 | O=C(O)c1cccnc1Nc1cc(F)ccc1F
122 | 169 to 171 | CC(C)(C)OC(=O)NC1CCN(CC(N)=S)CC1
123 | 162 to 164 | O=C1CCN(c2ccc([N+](=O)[O-])cc2)CC1
124 | 45 to 47 | Cc1ccc(C2CC2C(=O)O)s1 (stereo unspecified)
125 | 188 to 190 | Nc1ccccc1NS(=O)(=O)c1cccs1
126 | 125 to 127 | COc1cccc(CC(C(=O)O)n2nnnc2C)c1 (stereo unspecified)
127 | 304 to 306 | Cc1c(CCC(=O)O)c(=O)[nH]c2c1c(=O)[nH]n2C
128 | 93 to 95 | CNC(=O)c1ccc(Cl)cc1N
129 | 77 to 79 | CC1CC(N)C(=O)N1c1ccccc1 (stereo unspecified)
130 | 185 to 187 | COc1ccccc1C(NC(=O)OC(C)(C)C)C(N)=NO (stereo unspecified)
131 | 50 to 52 | COC(=O)Cc1ccc([N+](=O)[O-])s1
132 | 116 to 118 | Cc1ccc(-n2nc(C(C)(C)C)cc2N)cc1
133 | 62 to 64 | CCOC(=O)c1cnc2ccc(C)cc2c1Cl
134 | 104 to 106 | O=C(O)CCSc1ccccc1Br
135 | 63 to 65 | [N-]=[N+]=NC1(c2ccc(F)cc2)CCOCC1
136 | 49 to 51 | CCOC(=O)c1cc(Br)cc(Cl)c1N
137 | 159 to 161 | COC(=O)c1ccc(C(=O)c2cc[nH]c2)cc1
138 | 110 to 112 | c1cc(-c2ccsc2)n[nH]1
139 | 36 to 38 | COC(=O)c1noc(C)c1C(C)=O
140 | 138 to 140 | N#Cc1ccc2cc(Br)c(Br)cc2c1
141 | 46 to 48 | COc1ccc(CCCC(=O)O)c(OC)c1
